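Following 48 hours of exposure in 96-well plates, responses at five concentrations were used to interpolate endpoints linearly. GI50 = concentration required for 50% inhibition of growth. TGI denotes the concentration required for complete inhibition of growth.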
Assays:
Assay in all cases: NCI-60 cell line screen, 48 h
NCI-H522 lung = system: NCI-H522 lung
SR leukemia = system: SR leukemia
SF-268 CNS = system: SF-268 CNS
OVCAR-3 ovarian = system: OVCAR-3 ovarian
HOP-62 NSCLC = system: HOP-62 NSCLC
SNB-75 CNS = system: SNB-75 CNS
A498 renal = system: A498 renal
U251 CNS = system: U251 CNS
PC-3 prostate = system: PC-3 prostate
HCC-2998 colon = system: HCC-2998 colon

Compound	TGI (NCI-H522 lung)	TGI (SR leukemia)	TGI (SF-268 CNS)	TGI (OVCAR-3 ovarian)	TGI (HOP-62 NSCLC)	TGI (SNB-75 CNS)	TGI (A498 renal)	TGI (U251 CNS)	GI50 (PC-3 prostate)	TGI (PC-3 prostate)	GI50 (NCI-H522 lung)	GI50 (SR leukemia)	GI50 (SF-268 CNS)	GI50 (OVCAR-3 ovarian)	GI50 (SNB-75 CNS)	GI50 (A498 renal)	GI50 (U251 CNS)	GI50 (HOP-62 NSCLC)	GI50 (HCC-2998 colon)	TGI (HCC-2998 colon)
C/C=C1\CCC2c3[nH]c4ccccc4c3CCN2C1 (stereo unspecified)	> 100 µM	> 100 µM	> 100 µM	> 100 µM	> 100 µM	> 100 µM	> 100 µM	> 100 µM	–	–	–	–	–	–	–	–	–	–	–	–
Cc1ccc(C(=O)N=Nc2c(O)[nH]c3ccc(Cl)cc23)cc1	> 50 µM	> 50 µM	> 50 µM	> 50 µM	–	> 50 µM	> 50 µM	> 50 µM	25.9 µM	> 50 µM	20.2 µM	> 50 µM	25.4 µM	21.3 µM	16.6 µM	35.3 µM	21500 nM	–	–	–
CC(=O)/C(=C\c1c(-c2ccccc2)[nH]c2ccccc12)S(=O)(=O)c1ccccc1	4.35 µM	–	31.1 µM	4.52 µM	3.03 µM	14.6 µM	15.9 µM	3.62 µM	2.44 µM	15 µM	1.17 µM	–	3.35 µM	1.54 µM	1.59 µM	5.44 µM	1200 nM	1180 nM	1380 nM	2.78 µM
COC[C@@H](N=CN1CCc2cc(OC)c(OC)cc2C1)C(C)(C)C	> 100 µM	> 100 µM	> 100 µM	> 100 µM	> 100 µM	> 100 µM	–	> 100 µM	–	–	–	–	–	–	–	–	–	–	–	–
COc1ccc2c(c1)CCN1C3=C(CCC3)C(=O)C[C@@H]21	> 100 µM	> 100 µM	> 100 µM	> 100 µM	> 100 µM	> 100 µM	> 100 µM	> 100 µM	–	–	–	–	–	–	–	–	–	–	–	> 100 µM
COc1cc2c(cc1OC)[C@@H]([C@H](O)c1ccccc1)NCC2	> 100 µM	> 100 µM	> 100 µM	> 100 µM	> 100 µM	> 100 µM	> 100 µM	> 100 µM	–	–	–	–	–	–	–	–	–	–	–	> 100 µM
Cc1cn2c(/C=N/N=C(N)N)c(-c3ccsc3)nc2s1	> 100 µM	–	44.3 µM	13.4 µM	–	–	43.3 µM	5.95 µM	7.5 µM	20.1 µM	28.4 µM	–	14.6 µM	4.02 µM	–	28.3 µM	2080 nM	–	2340 nM	5.33 µM
Cc1cc2c(=O)[nH]c(N)nc2nc1C	> 100 µM	> 100 µM	> 100 µM	> 100 µM	> 100 µM	> 100 µM	> 100 µM	> 100 µM	–	> 100 µM	–	–	–	–	–	–	–	–	–	–
O=C1CCC2(c3ccccc3)Nc3ccc(Cl)cc3N12 (stereo unspecified)	> 100 µM	–	> 100 µM	> 100 µM	> 100 µM	> 100 µM	> 100 µM	> 100 µM	–	–	–	–	–	–	–	–	–	–	–	> 100 µM
CC/C(CC(=O)CCC(=O)Nc1ccc(C)c(C)c1)=N\NC(=O)C(N)=O	> 100 µM	> 100 µM	> 100 µM	> 100 µM	> 100 µM	> 100 µM	> 100 µM	> 100 µM	–	–	–	–	–	–	–	–	–	–	–	–

From PubChem BioAssay (NCI)
